# Patent US10865191B2, “Heterocyclic compounds useful as modulators of TNF alpha” (BRISTOL-MYERS SQUIBB COMPANY, priority 2015, dated 2020)
# Target: TNFα (Homo sapiens, UniProt P01375)
# Test: TNF induced HEK-Blue assay (NF-kB-driven secreted alkaline phosphatase reporter)
# Format: cell-based
# Details: TNF induced HEK-Blue assay IC50 value, TNFα 0.5 ng/mL, HEK-Blue-CD40L cells, 18 h
# Procedure, shortened: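 HEK-Blue-CD40L cells (NF-kB-driven SEAP reporter), 20,000/well, added after 30 min pre-incubation of compound (0.004–25 μM final) with TNFα 0.5 ng/mL final at 37 °C; 18 h incubation. SEAP read with QUANTI-Blue at 620 nm; IC50 from 4-parameter logistic fit, normalized to unstimulated and stimulated DMSO controls.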
# Sequence of TNFα (P01375 77-233 limits assumed): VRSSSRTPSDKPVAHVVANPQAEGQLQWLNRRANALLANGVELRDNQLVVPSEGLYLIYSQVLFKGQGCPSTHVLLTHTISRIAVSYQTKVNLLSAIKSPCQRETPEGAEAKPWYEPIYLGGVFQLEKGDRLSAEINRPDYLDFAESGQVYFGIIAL
row,SMILES,IC50
1,"C[C@@H](Nc1c(Cl)cnc2ccc(-c3cnc(C(C)(C)O)nc3)cc12)c1ccccc1 [Example 154, (R)-2-(5-(3-chloro-4-((1-phenylethyl)amino)quinolin-6-yl)pyrimidin-2-yl)propan-2-ol]",< 1000 nM
2,"CC(C)C(Nc1c(Cl)cnc2ccc(-c3cnc(C(C)(C)O)nc3)cc12)c1ccccc1F (stereo not shown) [Example 189, 2-(5-(3-chloro-4-((1-(2-fluorophenyl)-2-methylpropyl)amino)quinolin-6-yl)pyrimidin-2-yl)propan-2-ol]",< 1000 nM

# Same assay, conditions: TNFα 0.5 ng/mL, HEK-Blue-CD40L cells, 18 h; read-out: TNF induced HEK-Blue assay IC50 value
row,SMILES,IC50
1,"CCC(Nc1c(Cl)cnc2ccc(-c3cnc(C(C)(C)O)nc3)cc12)c1nc(CO)ccc1F (stereo not shown) [Example 130, 2-(5-(3-chloro-4-((1-(3-fluoro-6-(hydroxymethyl)pyridin-2-yl)propyl)amino)quinolin-6-yl)pyrimidin-2-yl)propan-2-ol]",< 1000 nM
2,"CC(=O)NC1CCC(O)(c2ncc(-c3ccc4ncc(Cl)c(N[C@H](C)c5ccccc5F)c4c3)cn2)CC1 (stereo partly drawn) [Example 131, (R)—N-(4-(5-(3-chloro-4-((1-(2-fluorophenyl)ethyl)amino)quinolin-6-yl)pyrimidin-2-yl)-4-hydroxycyclohexyl)acetamide]",1000 to 10000 nM
3,"CC(=O)NC1CCC(O)(c2ncc(-c3ccc4ncc(Cl)c(N[C@H](C)c5ccccc5F)c4c3)cn2)CC1 (stereo partly drawn) [Example 132, (R)—N-(4-(5-(3-chloro-4-((1-(2-fluorophenyl)ethyl)amino)quinolin-6-yl)pyrimidin-2-yl)-4-hydroxycyclohexyl)acetamide]",1000 to 10000 nM
4,"C[C@@H](Nc1c(Cl)cnc2ccc(-c3cnc(C(C)(C)O)nc3)cc12)c1cccc(N2CCOCC2)c1 [Example 136, (R)-2-(5-(3-chloro-4-((1-(3-morpholinophenyl)ethyl)amino)quinolin-6-yl)pyrimidin-2-yl)propan-2-ol]",< 1000 nM
5,"CC(C)(O)c1ncc(-c2ccc3ncc(Cl)c(NCc4ccc(C(F)(F)F)cc4)c3c2)cn1 [Example 145, 2-(5-(3-chloro-4-(4-(trifluoromethyl)benzylamino)quinolin-6-yl)pyrimidin-2-yl)propan-2-ol]",10000 to 25000 nM
6,"CC(C)(O)c1ncc(-c2ccc3ncc(Cl)c(NCc4ccccc4C(F)(F)F)c3c2)cn1 [Example 146, 2-(5-(3-chloro-4-((2-(trifluoromethyl)benzyl)amino)quinolin-6-yl)pyrimidin-2-yl)propan-2-ol]",< 1000 nM
7,"CC(C)(O)c1ncc(-c2ccc3ncc(Cl)c(NCc4ccc(OC(F)F)cc4)c3c2)cn1 [Example 148, 2-(5-(3-chloro-4-((4-(difluoromethoxy)benzyl)amino)quinolin-6-yl)pyrimidin-2-yl)propan-2-ol]",1000 to 10000 nM
8,"CC(C)(O)c1ncc(-c2ccc3ncc(Cl)c(NC4(c5ccccc5F)CC4)c3c2)cn1 [Example 158, 2-(5-(3-chloro-4-((1-(2-fluorophenyl)cyclopropyl)amino)quinolin-6-yl)pyrimidin-2-yl)propan-2-ol]",< 1000 nM
9,"CC(C)(O)c1ncc(-c2ccc3ncc(Cl)c(NC4(c5ccccc5)CC4)c3c2)cn1 [Example 161, 2-(5-(3-chloro-4-((1-phenylcyclopropyl)amino)quinolin-6-yl)pyrimidin-2-yl)propan-2-ol]",1000 to 10000 nM
10,"COc1nc2ccc(-c3cnc(C(C)(C)O)nc3)cc2c(Nc2cc(C)ccc2C)c1C [Example 180, 2-(5-(4-(2,5-dimethylphenylamino)-2-methoxy-3-methylquinolin-6-yl)pyrimidin-2-yl)propan-2-ol]",10000 to 25000 nM
11,"Cc1ccc(C)c(Nc2c(C)c(O)nc3ccc(-c4cnc(C(C)(C)O)nc4)cc23)c1 [Example 181, 4-((2,5-dimethylphenyl)amino)-6-(2-(2-hydroxypropan-2-yl)pyrimidin-5-yl)-3-methylquinolin-2-ol]",10000 to 25000 nM
12,"CC(C)(O)c1ncc(-c2ccc3ncc(Cl)c(NC(C)(C)c4cccc(C(F)(F)F)c4)c3c2)cn1 [Example 182, 2-(5-(3-chloro-4-((2-(3-(trifluoromethyl)phenyl)propan-2-yl)amino)quinolin-6-yl)pyrimidin-2-yl)propan-2-ol]",10000 to 25000 nM
13,"Cc1ccc(C)c(Nc2c(F)c(C)nc3ccc(-c4cnc(C(C)(C)O)nc4)cc23)c1 [Example 183, 2-(5-(4-((2,5-dimethylphenyl)amino)-3-fluoro-2-methylquinolin-6-yl)pyrimidin-2-yl)propan-2-ol]",< 1000 nM
14,"Cc1ccc(C)c(Nc2c(C)c(C)nc3ccc(-c4cnc(C(C)(C)O)nc4)cc23)c1 [Example 184, 2-(5-(4-((2,5-dimethylphenyl)amino)-2,3-dimethylquinolin-6-yl)pyrimidin-2-yl)propan-2-ol]",< 1000 nM
15,"CC(C)(O)c1ncc(-c2ccc3ncc(Cl)c(NC(C)(C)c4ccc(C(F)(F)F)cc4)c3c2)cn1 [Example 185, 2-(5-(3-chloro-4-((2-(4-(trifluoromethyl)phenyl)propan-2-yl)amino)quinolin-6-yl)pyrimidin-2-yl)propan-2-ol]",10000 to 25000 nM
16,"CNC(=O)c1ccc(-c2ccc3nc(C)c(F)c(Nc4cc(C)ccc4C)c3c2)cn1 [Example 186, 5-(4-((2,5-dimethylphenyl)amino)-3-fluoro-2-methylquinolin-6-yl)-N-methylpicolinamide]",10000 to 25000 nM
17,"Cc1ccc(C)c(Nc2c(F)c(C)nc3ccc(-c4cnc(N5CCN(CC(=O)O)CC5)nc4)cc23)c1 [Example 187, 2-(4-(5-(4-((2,5-dimethylphenyl)amino)-3-fluoro-2-methylquinolin-6-yl)pyrimidin-2-yl)piperazin-1-yl)acetic acid]",< 1000 nM
18,"C=Cc1ccc(F)c([C@@H](C)Nc2c(Cl)cnc3cc(F)c(-c4cnc(C(C)(C)O)nc4)nc23)c1 [Example 188, (R)-2-(5-(7-chloro-3-fluoro-8-((1-(2-fluoro-5-vinylphenyl)ethyl)amino)-1,5-naphthyridin-2-yl)pyrimidin-2-yl)propan-2-ol]",< 1000 nM
19,"C[C@@H](Nc1c(Cl)cnc2cc(F)c(-c3cnc(C(C)(C)O)nc3)nc12)c1ccccc1 [Example 193, (R)-2-(5-(7-chloro-3-fluoro-8-((1-phenylethyl)amino)-1,5-naphthyridin-2-yl)pyrimidin-2-yl)propan-2-ol]",< 1000 nM
20,"CC(C)(O)c1ncc(-c2nc3c(N[C@@H](c4ccccc4F)C(F)F)c(Cl)cnc3cc2F)cn1 [Example 207, (S)-2-(5-(7-chloro-8-((2,2-difluoro-1-(2-fluorophenyl)ethyl)amino)-3-fluoro-1,5-naphthyridin-2-yl)pyrimidin-2-yl)propan-2-ol]",< 1000 nM
21,"C[C@H](Nc1c(Cl)cnc2cc(F)c(-c3cnc(C(C)(C)O)nc3)nc12)c1ccccc1 [Example 208, (S)-2-(5-(7-chloro-3-fluoro-8-((1-phenylethyl)amino)-1,5-naphthyridin-2-yl)pyrimidin-2-yl)propan-2-ol]",< 1000 nM
22,"Cc1nc2cc(F)c(-c3cnc(C(C)(C)O)nc3)nc2c(N[C@H](C)c2ccccc2)c1Cl [Example 213, (R)-2-(5-(7-chloro-3-fluoro-6-methyl-8-((1-phenylethyl)amino)-1,5-naphthyridin-2-yl)pyrimidin-2-yl)propan-2-ol]",< 1000 nM
23,"C=Cc1ccc(F)c([C@@H](Nc2c(Cl)cnc3cc(F)c(-c4cnc(C(C)(C)O)nc4)nc23)C(F)F)c1 [Example 215, (R)-2-(5-(7-chloro-8-((2,2-difluoro-1-(2-fluoro-5-vinylphenyl)ethyl)amino)-3-fluoro-1,5-naphthyridin-2-yl)pyrimidin-2-yl)propan-2-ol]",< 1000 nM
